Experimental data taken from PubChem BioAssay (NCI).
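All cell lines were grown in 96-well plates and treated with compound for 48 hours. TGI: concentration producing complete growth inhibition.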

How the values were obtained:
Test in all cases: NCI-60 cell line screen, 48 h
HCT-116 colon = test system: HCT-116 colon
BT-549 breast = test system: BT-549 breast
M14 melanoma = test system: M14 melanoma
MCF7 breast = test system: MCF7 breast
U251 CNS = test system: U251 CNS
RXF 393 renal = test system: RXF 393 renal
SN12C renal = test system: SN12C renal
HS 578T breast = test system: HS 578T breast
MDA-MB-231 breast = test system: MDA-MB-231 breast
NCI-H23 lung = test system: NCI-H23 lung
SK-MEL-28 melanoma = test system: SK-MEL-28 melanoma
UACC-62 melanoma = test system: UACC-62 melanoma
EKVX NSCLC = test system: EKVX NSCLC
OVCAR-8 ovarian = test system: OVCAR-8 ovarian
NCI-H226 lung = test system: NCI-H226 lung
SW-620 colon = test system: SW-620 colon
HOP-62 NSCLC = test system: HOP-62 NSCLC
HCT-15 colon = test system: HCT-15 colon
NCI-H460 lung = test system: NCI-H460 lung
SNB-75 CNS = test system: SNB-75 CNS
RPMI-8226 leukemia = test system: RPMI-8226 leukemia
COLO 205 colon = test system: COLO 205 colon
MDA-N = test system: MDA-N
SNB-19 CNS = test system: SNB-19 CNS
KM12 colon = test system: KM12 colon
SR leukemia = test system: SR leukemia
MOLT-4 leukemia = test system: MOLT-4 leukemia
A549 NSCLC = test system: A549 NSCLC
786-0 renal = test system: 786-0 renal
SK-MEL-2 melanoma = test system: SK-MEL-2 melanoma
UACC-257 melanoma = test system: UACC-257 melanoma
A498 renal = test system: A498 renal
ACHN renal = test system: ACHN renal
PC-3 prostate = test system: PC-3 prostate
TK-10 renal = test system: TK-10 renal
UO-31 renal = test system: UO-31 renal
IGROV1 ovarian = test system: IGROV1 ovarian
OVCAR-5 ovarian = test system: OVCAR-5 ovarian
HT29 colon = test system: HT29 colon
MALME-3M melanoma = test system: MALME-3M melanoma
HL-60(TB) leukemia = test system: HL-60(TB) leukemia
HCC-2998 colon = test system: HCC-2998 colon
HOP-92 NSCLC = test system: HOP-92 NSCLC
SK-MEL-5 melanoma = test system: SK-MEL-5 melanoma
K-562 leukemia = test system: K-562 leukemia
SF-268 CNS = test system: SF-268 CNS
SK-OV-3 ovarian = test system: SK-OV-3 ovarian
DU-145 prostate = test system: DU-145 prostate
MDA-MB-435 = test system: MDA-MB-435
OVCAR-4 ovarian = test system: OVCAR-4 ovarian
OVCAR-3 ovarian = test system: OVCAR-3 ovarian
SF-295 CNS = test system: SF-295 CNS
LOX IMVI melanoma = test system: LOX IMVI melanoma
NCI-H522 lung = test system: NCI-H522 lung
CAKI-1 renal = test system: CAKI-1 renal
CCRF-CEM leukemia = test system: CCRF-CEM leukemia

SMILES: CCOC(=O)c1c(N)sc2c1C(C)(C(=O)OCC)CC2 (configuration not stated)
- TGI (HCT-116 colon): > 100 µM
- TGI (BT-549 breast): > 100 µM
- TGI (M14 melanoma): > 100 µM
- TGI (MCF7 breast): > 100 µM
- TGI (U251 CNS): > 100 µM
- TGI (RXF 393 renal): > 100 µM
- TGI (SN12C renal): > 100 µM
- TGI (HS 578T breast): > 100 µM
- TGI (MDA-MB-231 breast): > 100 µM
- TGI (NCI-H23 lung): > 100 µM
- TGI (SK-MEL-28 melanoma): > 100 µM
- TGI (UACC-62 melanoma): > 100 µM
- TGI (EKVX NSCLC): > 100 µM
- TGI (OVCAR-8 ovarian): > 100 µM
- TGI (NCI-H226 lung): > 100 µM
- TGI (SW-620 colon): > 100 µM
- TGI (HOP-62 NSCLC): > 100 µM
- TGI (HCT-15 colon): > 100 µM
- TGI (NCI-H460 lung): > 100 µM
- TGI (SNB-75 CNS): > 100 µM
- TGI (RPMI-8226 leukemia): > 100 µM
- TGI (COLO 205 colon): > 100 µM
- TGI (MDA-N): > 100 µM
- TGI (SNB-19 CNS): > 100 µM
- TGI (KM12 colon): > 100 µM
- TGI (SR leukemia): > 100 µM
- TGI (MOLT-4 leukemia): > 100 µM
- TGI (A549 NSCLC): > 100 µM
- TGI (786-0 renal): > 100 µM
- TGI (SK-MEL-2 melanoma): > 100 µM
- TGI (UACC-257 melanoma): > 100 µM
- TGI (A498 renal): 83 µM
- TGI (ACHN renal): > 100 µM
- TGI (PC-3 prostate): > 100 µM
- TGI (TK-10 renal): > 100 µM
- TGI (UO-31 renal): > 100 µM
- TGI (IGROV1 ovarian): > 100 µM
- TGI (OVCAR-5 ovarian): > 100 µM
- TGI (HT29 colon): > 100 µM
- TGI (MALME-3M melanoma): > 100 µM
- TGI (HL-60(TB) leukemia): > 100 µM
- TGI (HCC-2998 colon): > 100 µM
- TGI (HOP-92 NSCLC): > 100 µM
- TGI (SK-MEL-5 melanoma): > 100 µM
- TGI (K-562 leukemia): > 100 µM

SMILES: O=C1NC(=S)N/C1=C\c1ccc(Br)s1
- TGI (HCT-116 colon): > 100 µM
- TGI (BT-549 breast): > 100 µM
- TGI (MCF7 breast): > 100 µM
- TGI (U251 CNS): > 100 µM
- TGI (RXF 393 renal): > 100 µM
- TGI (SF-268 CNS): > 100 µM
- TGI (SN12C renal): > 100 µM
- TGI (HS 578T breast): > 100 µM
- TGI (MDA-MB-231 breast): > 100 µM
- TGI (SK-OV-3 ovarian): > 100 µM
- TGI (DU-145 prostate): > 100 µM
- TGI (NCI-H23 lung): > 100 µM
- TGI (SK-MEL-28 melanoma): > 100 µM
- TGI (UACC-62 melanoma): > 100 µM
- TGI (MDA-MB-435): > 100 µM
- TGI (OVCAR-4 ovarian): > 100 µM
- TGI (EKVX NSCLC): > 100 µM
- TGI (NCI-H226 lung): > 100 µM
- TGI (SW-620 colon): > 100 µM
- TGI (HOP-62 NSCLC): > 100 µM
- TGI (HCT-15 colon): > 100 µM
- TGI (NCI-H460 lung): > 100 µM
- TGI (RPMI-8226 leukemia): 81.3 µM
- TGI (OVCAR-3 ovarian): > 100 µM
- TGI (COLO 205 colon): > 100 µM
- TGI (MDA-N): > 100 µM
- TGI (SNB-19 CNS): > 100 µM
- TGI (KM12 colon): > 100 µM
- TGI (SR leukemia): > 100 µM
- TGI (SF-295 CNS): > 100 µM
- TGI (MOLT-4 leukemia): > 100 µM
- TGI (786-0 renal): > 100 µM
- TGI (SK-MEL-2 melanoma): > 100 µM
- TGI (UACC-257 melanoma): > 100 µM
- TGI (A498 renal): > 100 µM
- TGI (ACHN renal): > 100 µM
- TGI (PC-3 prostate): > 100 µM
- TGI (TK-10 renal): > 100 µM
- TGI (LOX IMVI melanoma): > 100 µM
- TGI (NCI-H522 lung): > 100 µM
- TGI (UO-31 renal): > 100 µM
- TGI (IGROV1 ovarian): > 100 µM
- TGI (OVCAR-5 ovarian): > 100 µM
- TGI (HT29 colon): > 100 µM
- TGI (MALME-3M melanoma): > 100 µM
- TGI (CAKI-1 renal): > 100 µM
- TGI (HL-60(TB) leukemia): > 100 µM
- TGI (HCC-2998 colon): > 100 µM
- TGI (CCRF-CEM leukemia): > 100 µM
- TGI (HOP-92 NSCLC): > 100 µM
- TGI (SK-MEL-5 melanoma): > 100 µM
- TGI (K-562 leukemia): > 100 µM
